Data published in ChEMBL document CHEMBL1140110, “Hydration of drug-DNA complexes: greater water uptake for adriamycin compared to daunomycin” (J Med Chem, 2008).

Experiments:
[1] = test system: DNA; experiment: Binding affinity to calf thymus DNA at 1 uM in BPES buffer by fluorescence titration relative to daunomycin; assay type: nucleic-acid assay; conditions: Bos taurus
[2] = test system: DNA; experiment: Binding affinity to calf thymus DNA in BPES buffer assessed as binding constant K/10^5 by fluorescence titration; assay type: nucleic-acid assay; conditions: Bos taurus

fold change (FC) [1] | K [2] [M⁻¹] | Compound
2 | 605000 | COc1cccc2c1C(=O)c1c(O)c3c(c(O)c1C2=O)C[C@@](O)(C(=O)CO)C[C@@H]3O[C@H]1C[C@H](N)[C@H](O)[C@H](C)O1
– | 230000 | COc1cccc2c1C(=O)c1c(O)c3c(c(O)c1C2=O)C[C@@](O)(C(C)=O)C[C@@H]3O[C@H]1C[C@H](N)[C@H](O)[C@H](C)O1
